Entries after “also recorded” stand apart in the source; their conditions may differ.
Columns and labels:
[1] = test system: phosphorylation of HER1-3, RAS/RAF/MEK/MAPK, p70S6K, S6 ribosomal, 4EBP1, Cdc-2 and retinoblastoma; assay: Western blot analysis of tumour lysates from HCC29-0909A xenograft (pharmacodynamics); format: in vivo, SCID mice; conditions: Western blot of tumour lysates after two and fourteen days of treatment
[2] = test system: HCC01-0708 HER2/HER3 co-expressing PDX model of HCC; assay: HCC patient-derived xenograft model HCC01-0708, tumour volume; format: in vivo; conditions: HCC01-0708 PDX; 25, 50 or 100 mg/kg BID
[3] = test system: MAPK pathway; assay: Pharmacodynamics in HCC01-0708 PDX model; format: in vivo; conditions: after twelve days of treatment
[4] = test system: Huh7-SorR cells; assay: Early apoptosis in sorafenib resistant cells (Muse Annexin V & Dead Cell Assay); format: cell-based; conditions: high dose of varlitinib
Procedure: (§1) An in vitro experiment was conducted to investigate whether varlitinib induced apoptosis in HCC cell lines. HCC cells were grown in cell culture medium with 10% FBS and with varying concentrations of varlitinib. Apoptosis profiles were analysed at 24 hour and 48 hour timepoints, using Muse Annexin V & Dead Cell Assay kit and Muse Cell Analyser. Early apoptosis cells (identified as Annexin V-PE positive and Dead Cell Marker negative) were measured and plotted.

[5] = test system: HCC29-0909A HCC patient-derived xenograft (co-expression of HER1, HER2 and HER3); assay: HCC patient-derived xenograft model HCC29-0909A in SCID mice, tumour volume; format: in vivo; conditions: HCC29-0909A PDX in SCID mice
Procedure: A HCC patient-derived xenograft model in SCID mice (HCC29-0909A) with co-expression of HER1, HER2 and HER3 receptors [Cancer Res Aug. […] Dosing with varlitinib commenced when the tumours reached the size of approximately 100-150 mm^3. Bi-dimensional measurements are performed twice a week and tumour volumes are calculated based on the following formula: Tumour volume=[(Length)×(Width^2)×(p/6)].
Groups of mice were dosed as follows:
Group 1 control group received vehicle only
Group 2 received 25 mg/Kg of ASLAN001 BID (twice daily),
Group 3 received 50 mg/Kg of ASLAN001 BID (twice daily), and
Group 4 received 100 mg/Kg of ASLAN001 BID (twice daily).

[6] = test system: PLC/PRF/5 cells; assay: Apoptosis (AnnexinV) profile of PLC/PRF/5 cells; format: cell-based; conditions: 48 hour culture, increasing concentration
Procedure: as §1

[7] = test system: HCC cell lines; assay: Early apoptosis in HCC cell lines (Muse Annexin V & Dead Cell Assay); format: cell-based; conditions: all HCC cell lines tested; 48 hours of incubation
Procedure: as §1

`C[C@@H]1COC(Nc2ccc3ncnc(Nc4ccc(OCc5nccs5)c(Cl)c4)c3c2)=N1` [varlitinib, (R)-N4-[3-Chloro-4-(thiazol-2-ylmethoxy)-phenyl]-N6-(4-methyl-4,5,-dihydro-oxazol-2-yl)-quinazoline-4,6-diamine] was tested, and the “phosphorylation of HER1-3, RAS/RAF/MEK/MAPK, p70S6K, S6 ribosomal, 4EBP1, Cdc-2 and retinoblastoma” value [1] was “strongly inhibited”, the “tumour growth inhibition (tumour volume)” value [2] was “inhibited tumour growth; also recorded: dose-dependent tumour volume growth inhibition” and the “inhibition of the MAPK pathway” value [3] was “robust inhibition”. The early apoptosis [4] was about 70%, the tumor regression ([5]; 100 mg/kg BID) was “complete tumor regression” and the “tumour growth inhibition (tumour volume)” value ([5]; 25, 50 or 100 mg/kg BID) was “potently inhibited tumour growth; also recorded: dose-dependent tumour volume growth inhibition”. For the same molecule, the “percentage of apoptotic cells” value [6] was “increase in percentage of apoptotic cells correlates with increasing varlitinib concentration” and the “induction of early apoptosis (Annexin V-PE positive, Dead Cell Marker negative)” value [7] was “able to induce early apoptosis”.

Source: patent US20190134034A1, “Method of Treating Liver Cancer” (ASLAN Pharmaceuticals Pte. Ltd., priority 2016, published 2019)
